According to patent publication US11242347B2, “2-phenyl-3,4-dihydropyrrolo[2,1-Ff] [1,2,4]triazinone derivatives as phosphodiesterase inhibitors and uses thereof” (TOPADUR PHARMA AG, priority 2015, dated 2022):

Assays:
[1] = test system: human pulmonary artery smooth muscle cells (hPASMC); test: Measurements of cGMP in human pulmonary artery smooth muscle cells (hPASMC); type: cell-based; conditions: incubation 15 or 30 min; compared with sildenafil
Experimental: Human Pulmonary Artery Smooth Muscle Cells (hPASMC) were purchased from Clonetics™ Lonza (Lonza, reference number CC-2581) and cultured in Clonetics' smooth muscle growth medium (Clonetics™ SmGM™-2 with BulletKit™ growth factor supplements (Lonza, reference number CC-3182) at 37° C. in 5% CO2. Culture medium was replaced each 48 hours. Cells were grown in 75 cm^2 culture plates.
48 h before the experiments, cells were trypsinized (Trypsin kit One ReagentPack™ (CC-5034), Lonza) and plated in 96 well plates precoated with collagen I at 10000 cells per well. 24 h before the experiments culture medium was replaced by serum-reduced (0.5% FBS) medium.
Measurements of intracellular cGMP were performed using the Amersham cGMP EIA System (GE Healthcare, RPN226) following the instructions of the manufacturer. The assay has a sensitivity of 2 fmol cGMP per well. Briefly, incubations were terminated by adding Amersham's lysis buffer 1 and cells left for 10 min under agitation to ensure complete lysis. cGMP in samples was then acetylated using triethylamine and acetic anhydride and determined by a competitive ELISA. The ELISA is based on the competition between acetylated cGMP in cell culture lysates and a peroxidase-labelled cGMP conjugate for limited binding sites on a cGMP specific antiserum immobilized on pre-coated 96 well MTP. cGMP was determined based on a standard curve. […]

[2] = test system: phenylephrine-precontracted rat aortic rings; test: Isometric tension studies: relaxation of phenylephrine-precontracted rat aortic rings; conditions: for IC40: concentration where 40% relaxation was achieved
Experimental: After 1 week of acclimatization, rats were anesthetized. Appropriate depth of anesthesia was determined by the absence of the leg flexor response and the eyelid reflex. Then, the thorax was quickly opened by a midline incision, and the rat was sacrificed by cutting the heart and exsanguination.
Indomethacin (1 μM) was added to the saline solution.
Eligible rings were then washed several times to restore tension to the baseline level.
In some experiments, the entire length of the thoracic aorta was functionally denuded of the endothelial layer by gently scraping the luminal surface with a 1.5 mm glass rod. […] Rings were then washed several times to restore tension to the baseline level.
Indomethacin (1 μM) was added to the saline solution. […] Only vessels with at least 60% relaxation to 1 μM ACh from the tension with 300 nM were eligible.
The preparations were allowed to equilibrate for 60 min in Krebs with high glucose (25 mM) before contraction to a new single concentration of PE (300 nM).
Finally, sodium nitroprusside (0.1 mM) was added, in order to obtain maximum relaxation of arterial rings.
The amount of relaxation (percent values as means±SEM) was quantified as percent relaxation from the tension (plateau) achieved with phenylephrine.
Data are presented as mean±SEM. Statistical analysis of results has been performed by analysis of variance (ANOVA) either parametric or non-parametric (Kruskal-Wallis), followed by Bonferroni test or Dunn tests as appropriate (GraphPad Software Inc, San Diego, Calif., USA). Significance was accepted when P<0.05. Non-linear regression was conducted with GraphPad Software).

In the case of `CCCOc1ccc(S(=O)(=O)N2CCC(CCO)CC2)cc1-c1nn2c(CCC)c(/C=N/O)c(C)c2c(=O)[nH]1` [Compound 1r, (E)-2-(5-((4-(2-hydroxyethyl)piperidin-1-yl)sulfonyl)-2-propoxyphenyl)-5-methyl-4-oxo-7-propyl-3,4-dihydropyrrolo[2,1-f][1,2,4]triazine-6-carbaldehyde oxime], the “cGMP formation in hPASMC, activity in words” value [1] is reported as “significantly higher activity as compared to the reference inhibitor sildenafil”, the EC50 ([2]; High Glucose (25 mM)) is reported as 2.79 nM and the Emax ([2]; High Glucose (25 mM)) is reported as 51%. It also gave an IC40 ([2]; High Glucose (25 mM)) of 89.295 nM, an EC50 ([2]; Intact Endothelium (E+)) of 0.0074 nM and an Emax ([2]; Intact Endothelium (E+)) of 91.9%. It also gave an IC40 ([2]; Intact Endothelium (E+)) of 0.0038 nM, an EC50 ([2]; L-NAME (100 μM)) of 0.935 nM and an Emax ([2]; L-NAME (100 μM)) of 60.4%. The IC40 ([2]; L-NAME (100 μM)) was 2.982 nM, the EC50 ([2]; Without Endothelium) was 5.94 nM and the Emax ([2]; Without Endothelium) was 39.8%. For the same molecule, the IC40 ([2]; Without Endothelium) was over 1000 nM and the “relaxation of rat aortic rings, result in words” value ([2]; intact endothelium (FIG. 2A)) was “more potent and effective than Sildenafil”.
